This is an account of results in patent US7947257B2 (Archimedes Development Limited, priority 2003, dated 2011).

The data set in a line: Pharmacokinetic performance of intranasal granisetron formulations in sheep (plasma granisetron by HPLC). Format: in vivo. The note with it: in words. As to the method:
A group of five female sheep was used, each weighing around 35 kg. The formulations were administered to a randomized cross-over design. […] This dose was provided by administering 0.4 ml of each formulation via a spray device with the dose volume being divided equally between both nostrils.
Blood samples were collected over a 360 minute period following dosing and plasma separated. […] Pharmacokinetic parameters were calculated from the plasma data.

Structures are written as SMILES.

Take `CN1C2CCCC1CC(NC(=O)c1nn(C)c3ccccc13)C2` (stereo not shown) [Granisetron, 1-methyl-N-(9-methyl-9-azabicyclo[3.3.1]non-3-yl)-1H-indazole-3-carboxamide]: the “absorption by the intranasal route” value is listed as “well absorbed”.
